Data as given in US20040191842A1, “Chemopreventive and therapeutic aspects of polyphenolic compositions and assays” (Medical College of Georgia Research Institute, Inc., priority 2002, published 2004).
“Also recorded” adds a separate entry of the source.

Experiments:
Type in all cases: cell-based, human
NHEK = assay: Intracellular ROS levels (DFDA assay), NHEK; conditions: EGCG 15-200 μM, up to 120 minutes
Description: (§1) Measurement of intracellular ROS levels. The ROS assay measures the accumulation of intracellular ROS levels. The non-fluorescent dye DFDA passively diffuses into cells, where the acetates are cleaved by intracellular esterases. […] Thus, values of the fluorescence in the cell cultures are constantly rising in this assay. […] The intracellular ROS levels were measured by using a fluorescence plate reader (BIO-TEK FL600, Bio-Tek Instruments, Inc., Winooski, Vt.), at an excitation wavelength of 485 nm and an emission wavelength of 530 nm.

NS-SV-AC cells = assay: Intracellular ROS levels (DFDA assay), NS-SV-AC cells; conditions: EGCG 15-200 μM, 60 minutes
Description: as §1

MCF7 cells = assay: MTT assay (mitochondrial SDH activity), MCF7 cells; conditions: 50 μM EGCG
Description: MTT (3-(4,5-dimethylthiazol-2-yl)-2,5-diphenyl tetrazolium bromide) assay. This method detects the activity of mitochondrial succinate dehydrogenase (SDH). In a 96-well plate, 1.5×10^4 cells were seeded in each well. After variety of treatments, 100 μl of 2% MTT was added to each well and the plate was incubated at 37° C. for 30 minutes. 100 μl of 0.2 M Tris (pH 7.7) with 4% formalin was added to each well. After incubation at room temperature for 5 minutes, liquid was removed and the wells were allowed to dry. Each well was rinsed with 200 μl water followed by addition of 100 μl DMSO (6.35% 0.1 N NaOH in DMSO) to each well. The coloration was measured by a Thermo MAX microplate reader (Molecular Devices Corp. Sunnyvale, Calif. using wavelengths of 562 nm. Experiments were repeated three times with triplicate samples for each experiment.

OSC-2 cells = assay: Intracellular ROS levels (DFDA assay), OSC-2 cells
Description: (§2) Measurement of intracellular ROS levels. The ROS assay measures the accumulation of intracellular ROS levels. The non-fluorescent dye DFDA passively diffuses into cells, where the acetates are cleaved by intracellular esterases. […] Thus, values of the fluorescence in the cell cultures are constantly rising in this assay. Cells (1.5×10^4 cells/well) were incubated with Hallam's physiological saline (HPS) containing DFDA (10 μM) in a 96-well microplate for 30 minutes at 37° C. After the incubation, cells were washed three times with HPS and then incubated with HPS containing EGCG (15-200 μM) or diamide (5 mM) for the indicated time periods. The intracellular ROS levels were measured by using a fluorescence plate reader (BIO-TEK FL600, Bio-Tek Instruments, Inc., Winooski, Vt.), at an excitation wavelength of 485 nm and an emission wavelength of 530 nm.
as §2, with “assay (DFDA assay)” for “assay”, “dye dichlorofluorescein diacetate (DFDA)” for “dye DFDA”, “this assay due to the accumulation of ROS.” for “this assay.”, “EGCG (50-200” for “EGCG (15-200”, “indicated times.” for “indicated time periods.”

OSC-GFP cells and NHEK = assay: Co-culture of OSC-GFP cells and NHEK, double fluorescence; conditions: overlay co-culture, 100 μM EGCG, 24 hour
Description: Co-culture and GTPP treatment. Various patterns of co-culture of the tumor/normal cells were achieved by different designs. Examples include:
1. Adjacent co-culture design. OSC-GFP cells (5×10^4) were seeded in the center of a culturing device (8-well chamber-slide, Nagle Nunc International, Naperville, Ill.) through a cloning cylinder (Fisher Scientific/Scienceware, Tapered Design, 4.7×8 mm) in DMEM/F12 medium and allowed to attach for 24 hours. NHEK (10^5) in KGM-2 were then seeded in the area next to the cylinder. After 24 hours, the cylinder was removed and the medium was replaced by a 50/50 mix of KGM-2 and DMEM/F12 and the cells were allowed to grow for another 24 hours prior to treatment (FIG. 21, right).
2. Overlay design, which could be adapted for high throughput screening in 96 well plate. […]
4. Tumor cell migration was monitored by co-culturing OSC-GFP and NHEK in wells of a 24 well plate as indicated in “1”, except the NHEK cell number was doubled. After treatment, tumor cell migration into NHEK territory was recorded by fluorescent microscopy at selected time points. […]
Immunofluorescence and photography. […] Fluorescence was generated by a ZEISS AttoArc 2 source. […]
The total fluorescence intensities of images were quantified using the BIOQUANT NOVA PRIME 6.0 software (Bioquant Co., Nashville, Tenn.). […]

OSC2 cells = assay: Cell invasion/migration assay (Transwell), OSC2 cells; conditions: 50 μM EGCG
Description: Cell invasion/migration assay. The invasion/migration assays were conducted using a Transwell apparatus (Costar) with 6.5 mm diameter wells and membranes of 8 μm pore size. The invasiveness at each time point was tested in DMEM/F12 medium immediately following the cell growth assay, by seeding 10^5 cells in each transwell. Cells migrated across the transwell membrane were counted as per microscopic field.

## O=C(O[C@@H]1Cc2c(O)cc(O)cc2O[C@@H]1c1cc(O)c(O)c(O)c1)c1cc(O)c(O)c(O)c1 [EGCG, (−)-epigallocatechin-3-gallate]
NHEK
  intracellular ROS levels: significantly reduced immediately after the addition of EGCG; also recorded: reduce ROS to background levels
NS-SV-AC cells
  intracellular ROS levels: inhibit ROS production at background levels; also recorded: reduced the ROS to background levels
MCF7 cells
  mitochondrial SDH activities: significantly decreased
OSC-2 cells; 50 μM EGCG, 60 minute exposure
  intracellular ROS levels vs controls: remained comparable to the controls
OSC-2 cells; 50 or 200 μM EGCG, beyond 120 minutes
  intracellular ROS levels vs control: remained significantly higher than the control levels
OSC-2 cells; first hour
  H2O2 concentration producing ROS equivalent to 200 μM EGCG: 50 µM
OSC-GFP cells and NHEK
  ratio of fluorescence intensities of rhodamine (red)/FITC (green): 1.23
OSC2 cells; 24 hours
  cells invading the membrane, of control: about 30%
OSC2 cells; 96 hours
  cells invading the membrane, of control: 20%
